Source: US12466803B2 (priority 2021, dated 2025)

How the values were obtained:
obese ZSF1 rats = conditions: mean±SD
[1] = test system: phospho (S293) BCKDHA in human skeletal myocytes; assay: Phospho BCKDHA Alpha Surefire Cell Assay; format: cell-based; conditions: Homo sapiens, 1 h, 60 minutes with compound, geometric mean

| SMILES | IC50 [1] [nM] | also measured |
| --- | --- | --- |
| O=C(O)c1sc2cc(Cl)ccc2c1Cl [BT2] |  | kidney weights (obese ZSF1 rats; diet containing 1.36 g BT2/kg, after 4 additional weeks (8 weeks) of treatment): 2.09 ± 0.1 g; urine protein normalized to creatinine (obese ZSF1 rats; diet containing 1.36 g BT2/kg, after 4 weeks of treatment, BCA assay): 55.4±7.2 mg protein/mg creatinine; urine produced in 5 hour urine collection (obese ZSF1 rats; diet containing 1.36 g BT2/kg, after 4 weeks of treatment): 4.4 ± 2.7 mL; diabetic nephropathy score (obese ZSF1 rats; histology graded on a scale of 0-4, after 8 weeks of BT2 diet): 2.9±0.8 |
| CCc1nccc(-c2c(C(=O)O)sc3cc(F)ccc23)c1F [Example 112, 3-(2-ethyl-3-fluoropyridin-4-yl)-6-fluoro-1-benzothiophene-2-carboxylic acid] | 2300 |  |
| COc1cc(-c2c(C(=O)O)sc3cc(F)ccc23)c(F)c(F)c1Cl [Example 114, 3-(4-chloro-2,3-difluoro-5-methoxyphenyl)-6-fluoro-1-benzothiophene-2-carboxylic acid] | 1800 |  |
| Cc1c(F)ccc(-c2c(C(=O)O)sc3cc(F)ccc23)c1F [Example 117, 3-(2,4-difluoro-3-methylphenyl)-6-fluoro-1-benzothiophene-2-carboxylic acid] | 120 |  |
| COc1ccc(F)c(-c2c(C(=O)O)sc3cc(Cl)ccc23)c1F [Example 129, 6-chloro-3-(2,6-difluoro-3-methoxyphenyl)-1-benzothiophene-2-carboxylic acid] | 1800 |  |
| O=C(O)c1sc2cc(Cl)ccc2c1-c1cc(Cl)c(F)cc1F [Example 132, ammonium 6-chloro-3-(5-chloro-2,4-difluorophenyl)-1-benzothiophene-2-carboxylate] | 470 |  |
| O=C(O)c1sc2cc(Cl)ccc2c1-c1cc(F)c(F)cc1F [Example 133, 6-chloro-3-(2,4,5-trifluorophenyl)-1-benzothiophene-2-carboxylic acid] | 730 |  |
| CCc1c(F)c(F)cc(-c2c(C(=O)O)sc3cc(Cl)ccc23)c1F [Example 134, 6-chloro-3-(3-ethyl-2,4,5-trifluorophenyl)-1-benzothiophene-2-carboxylic acid] | 80 |  |
| Cc1c(F)c(-c2c(C(=O)O)sc3cc(Cl)ccc23)cc(F)c1Cl [Example 136, ammonium 6-chloro-3-(4-chloro-2,5-difluoro-3-methylphenyl)-1-benzothiophene-2-carboxylate] | 120 |  |
| Cc1cc(-c2c(C(=O)O)sc3cc(Cl)ccc23)c(F)cc1F [Example 137, 6-chloro-3-(2,4-difluoro-5-methylphenyl)-1-benzothiophene-2-carboxylic acid] | 540 |  |
| COc1c(Cl)ccc(-c2c(C(=O)O)sc3cc(Cl)ccc23)c1F [Example 138, 6-chloro-3-(4-chloro-2-fluoro-3-methoxyphenyl)-1-benzothiophene-2-carboxylic acid] | 160 |  |
| O=C(O)c1sc2cc(F)ccc2c1-c1c(F)c(F)cc(F)c1F [Example 140, 6-fluoro-3-(2,3,5,6-tetrafluorophenyl)-1-benzothiophene-2-carboxylic acid] | 3800 |  |
| Cc1c(F)ccc(-c2c(C(=O)O)sc3cc(Cl)ccc23)c1F [Example 141, 6-chloro-3-(2,4-difluoro-3-methylphenyl)-1-benzothiophene-2-carboxylic acid] | 230 |  |
| CCc1c(F)ccc(-c2c(C(=O)O)sc3cc(Cl)ccc23)c1F [Example 143, 6-chloro-3-(3-ethyl-2,4-difluorophenyl)-1-benzothiophene-2-carboxylic acid] | 200 |  |
| Cc1c(Cl)ccc(-c2c(C(=O)O)sc3cc(Cl)ccc23)c1F [Example 146, 6-chloro-3-(4-chloro-2-fluoro-3-methylphenyl)-1-benzothiophene-2-carboxylic acid] | 110 |  |
| O=C(O)c1sc2cc(F)ccc2c1-c1ccc(F)c(C2CC2)c1F [Example 147, 3-(3-cyclopropyl-2,4-difluorophenyl)-6-fluoro-1-benzothiophene-2-carboxylic acid] | 190 |  |
| O=C(O)c1sc2cc(F)ccc2c1-c1c(F)cc(F)cc1Cl [Example 148, 3-(2-chloro-4,6-difluorophenyl)-6-fluoro-1-benzothiophene-2-carboxylic acid] | 4000 |  |
| O=C(O)c1sc2cc(Cl)ccc2c1-c1cc(F)c(F)c(F)c1F [Example 149, ammonium 6-chloro-3-(2,3,4,5-tetrafluorophenyl)-1-benzothiophene-2-carboxylate] | 950 |  |
| COc1ccc(Cl)c(-c2c(C(=O)O)sc3cc(F)ccc23)c1F [Example 150, 3-(6-chloro-2-fluoro-3-methoxyphenyl)-6-fluoro-1-benzothiophene-2-carboxylic acid] | 1100 |  |
| COc1c(F)cc(F)c(-c2c(C(=O)O)sc3cc(F)ccc23)c1Cl [Example 154, 3-(2-chloro-4,6-difluoro-3-methoxyphenyl)-6-fluoro-1-benzothiophene-2-carboxylic acid] | 4200 |  |
| COc1c(F)c(F)cc(-c2c(C(=O)O)sc3ccccc23)c1F [Example 157, 3-(2,4,5-trifluoro-3-methoxyphenyl)-1-benzothiophene-2-carboxylic acid] | 230 |  |
